How the values were obtained:
Type in all cases: cell-based
IKZF1 = target: T1, IKZF1 (Homo sapiens, UniProt Q13422+Q96SW2); experiment: Western-blot assay, substrate protein degradation in hPBMCs: IKZF1; conditions: for substrate protein remaining % IKZF1: 24 hours of compound treatment, 50 nM and 500 nM; for IKZF1 substrate protein remaining %: compounds at 50 nM and 500 nM, 24 hours
T1 construct: effects of the compounds of the present disclosure on the expression of target proteins in cells; endogenous in cells; host or cells: human PBMCs (hPBMCs)
T1 sequence (Q13422 whole entry): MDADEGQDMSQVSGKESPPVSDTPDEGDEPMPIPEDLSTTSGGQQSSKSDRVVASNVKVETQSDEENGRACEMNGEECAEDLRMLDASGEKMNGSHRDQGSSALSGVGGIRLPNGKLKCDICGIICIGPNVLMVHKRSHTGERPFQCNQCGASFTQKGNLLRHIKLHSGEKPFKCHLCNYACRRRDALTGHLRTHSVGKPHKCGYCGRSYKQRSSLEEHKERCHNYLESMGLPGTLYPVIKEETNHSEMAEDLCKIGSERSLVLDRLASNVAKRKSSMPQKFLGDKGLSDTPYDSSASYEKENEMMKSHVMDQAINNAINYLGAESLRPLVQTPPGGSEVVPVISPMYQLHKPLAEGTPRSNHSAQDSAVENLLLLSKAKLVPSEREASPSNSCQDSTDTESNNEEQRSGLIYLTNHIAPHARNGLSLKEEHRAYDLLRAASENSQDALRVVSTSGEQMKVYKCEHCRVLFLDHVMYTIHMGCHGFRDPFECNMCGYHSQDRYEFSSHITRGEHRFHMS
T1 sequence (Q96SW2 whole entry): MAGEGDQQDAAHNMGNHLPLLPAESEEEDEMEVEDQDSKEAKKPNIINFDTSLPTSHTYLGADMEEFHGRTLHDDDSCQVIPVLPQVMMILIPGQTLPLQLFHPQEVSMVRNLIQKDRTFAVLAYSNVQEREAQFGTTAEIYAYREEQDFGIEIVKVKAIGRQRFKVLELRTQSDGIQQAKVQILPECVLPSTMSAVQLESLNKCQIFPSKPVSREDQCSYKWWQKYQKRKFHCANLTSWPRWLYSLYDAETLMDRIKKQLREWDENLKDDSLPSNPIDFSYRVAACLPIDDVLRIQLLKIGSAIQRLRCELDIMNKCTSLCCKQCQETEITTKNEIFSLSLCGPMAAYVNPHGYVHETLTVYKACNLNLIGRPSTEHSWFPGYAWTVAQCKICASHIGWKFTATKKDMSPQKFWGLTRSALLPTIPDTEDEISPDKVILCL
T1 sequence (Q16531 whole entry partner): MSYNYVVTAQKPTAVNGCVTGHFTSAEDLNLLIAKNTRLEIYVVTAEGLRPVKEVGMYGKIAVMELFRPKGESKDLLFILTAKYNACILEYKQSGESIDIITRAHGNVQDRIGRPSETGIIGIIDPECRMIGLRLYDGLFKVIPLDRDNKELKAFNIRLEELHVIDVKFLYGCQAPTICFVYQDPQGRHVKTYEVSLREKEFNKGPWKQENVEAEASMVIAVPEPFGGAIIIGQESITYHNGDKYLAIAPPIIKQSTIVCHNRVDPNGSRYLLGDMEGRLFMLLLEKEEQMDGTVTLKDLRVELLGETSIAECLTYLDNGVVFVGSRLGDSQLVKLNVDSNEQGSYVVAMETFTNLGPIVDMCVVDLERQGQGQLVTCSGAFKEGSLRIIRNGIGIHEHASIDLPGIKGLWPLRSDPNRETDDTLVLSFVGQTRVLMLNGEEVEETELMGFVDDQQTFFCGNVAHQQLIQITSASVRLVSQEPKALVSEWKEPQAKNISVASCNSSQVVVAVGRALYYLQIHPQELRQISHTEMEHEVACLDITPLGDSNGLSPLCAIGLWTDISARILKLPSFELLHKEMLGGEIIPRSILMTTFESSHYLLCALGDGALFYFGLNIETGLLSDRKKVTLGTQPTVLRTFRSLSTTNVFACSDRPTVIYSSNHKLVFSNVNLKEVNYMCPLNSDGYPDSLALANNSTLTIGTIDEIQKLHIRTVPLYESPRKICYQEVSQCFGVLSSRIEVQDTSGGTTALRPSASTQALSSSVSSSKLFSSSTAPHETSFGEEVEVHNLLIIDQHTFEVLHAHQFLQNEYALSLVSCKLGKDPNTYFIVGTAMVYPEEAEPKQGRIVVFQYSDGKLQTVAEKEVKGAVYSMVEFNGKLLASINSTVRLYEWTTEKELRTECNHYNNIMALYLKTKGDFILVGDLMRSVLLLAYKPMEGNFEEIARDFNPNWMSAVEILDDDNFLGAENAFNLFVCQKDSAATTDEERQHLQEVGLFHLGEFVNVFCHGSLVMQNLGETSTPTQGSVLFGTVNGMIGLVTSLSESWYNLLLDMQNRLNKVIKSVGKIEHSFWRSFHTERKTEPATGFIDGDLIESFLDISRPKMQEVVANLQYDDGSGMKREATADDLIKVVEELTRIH

WEE1 = target: T2, WEE1 (Homo sapiens, UniProt P30291+Q96SW2); experiment: Western-blot assay, substrate protein degradation in hPBMCs: WEE1; conditions: for substrate protein remaining % WEE1: 24 hours of compound treatment, 50 nM and 500 nM; for WEE1 substrate protein remaining %: compounds at 50 nM and 500 nM, 24 hours
T2 construct: effects of the compounds of the present disclosure on the expression of target proteins in cells; endogenous in cells; host or cells: human PBMCs (hPBMCs)
T2 sequence (P30291 whole entry): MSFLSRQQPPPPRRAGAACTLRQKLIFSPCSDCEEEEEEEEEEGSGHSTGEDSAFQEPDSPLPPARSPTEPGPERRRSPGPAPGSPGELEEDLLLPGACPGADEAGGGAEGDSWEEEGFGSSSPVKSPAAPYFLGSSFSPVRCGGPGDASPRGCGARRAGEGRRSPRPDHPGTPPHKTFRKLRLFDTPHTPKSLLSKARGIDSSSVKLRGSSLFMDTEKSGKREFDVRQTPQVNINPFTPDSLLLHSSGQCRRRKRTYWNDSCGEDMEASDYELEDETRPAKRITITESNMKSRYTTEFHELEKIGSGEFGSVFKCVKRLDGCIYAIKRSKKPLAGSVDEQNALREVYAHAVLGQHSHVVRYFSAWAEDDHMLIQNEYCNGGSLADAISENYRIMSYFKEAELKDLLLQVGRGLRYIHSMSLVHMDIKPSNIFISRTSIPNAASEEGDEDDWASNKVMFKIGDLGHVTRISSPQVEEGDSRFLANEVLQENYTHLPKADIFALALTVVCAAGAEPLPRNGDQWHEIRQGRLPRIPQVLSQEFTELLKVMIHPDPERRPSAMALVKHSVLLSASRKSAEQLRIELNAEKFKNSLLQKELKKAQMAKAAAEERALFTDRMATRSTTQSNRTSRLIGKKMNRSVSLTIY
T2 sequence (Q96SW2 whole entry): as the sequence (Q96SW2 whole entry) above
T2 sequence (Q16531 whole entry partner): as the sequence (Q16531 whole entry partner) above

CK1α = target: T3, CK1α (Homo sapiens, UniProt P48729+Q96SW2); experiment: Western-blot assay, substrate protein degradation in hPBMCs: CK1α; conditions: for substrate protein remaining % CK1α: 24 hours of compound treatment, 50 nM and 500 nM; for CK1α substrate protein remaining %: compounds at 50 nM and 500 nM, 24 hours
T3 construct: effects of the compounds of the present disclosure on the expression of target proteins in cells; endogenous in cells; host or cells: human PBMCs (hPBMCs)
T3 sequence (P48729 whole entry): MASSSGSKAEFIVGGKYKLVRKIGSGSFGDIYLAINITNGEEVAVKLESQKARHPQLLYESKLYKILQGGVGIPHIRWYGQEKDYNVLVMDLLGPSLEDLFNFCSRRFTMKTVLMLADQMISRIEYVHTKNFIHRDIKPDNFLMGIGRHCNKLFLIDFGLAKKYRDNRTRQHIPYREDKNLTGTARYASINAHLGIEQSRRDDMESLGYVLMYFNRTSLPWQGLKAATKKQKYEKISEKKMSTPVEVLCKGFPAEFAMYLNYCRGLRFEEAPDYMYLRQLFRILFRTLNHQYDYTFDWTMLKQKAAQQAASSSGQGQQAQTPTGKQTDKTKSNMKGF
T3 sequence (Q96SW2 whole entry): as the sequence (Q96SW2 whole entry) above
T3 sequence (Q16531 whole entry partner): as the sequence (Q16531 whole entry partner) above

IKZF2 = target: T4, IKZF2 (Homo sapiens, UniProt Q96SW2+Q9UKS7); experiment: Western-blot assay, substrate protein degradation in hPBMCs: IKZF2; conditions: for substrate protein remaining % IKZF2: 24 hours of compound treatment, 50 nM and 500 nM; for IKZF2 substrate protein remaining %: compounds at 50 nM and 500 nM, 24 hours
T4 construct: effects of the compounds of the present disclosure on the expression of target proteins in cells; endogenous in cells; host or cells: human PBMCs (hPBMCs)

GSPT1 = target: T5, GSPT1 (Homo sapiens, UniProt P15170+Q96SW2); experiment: Western-blot assay, substrate protein degradation in hPBMCs: GSPT1; conditions: for substrate protein remaining % GSPT1: 24 hours of compound treatment, 50 nM and 500 nM; for GSPT1 substrate protein remaining %: compounds at 50 nM and 500 nM, 24 hours
T5 construct: effects of the compounds of the present disclosure on the expression of target proteins in cells; endogenous in cells; host or cells: human PBMCs (hPBMCs)
T5 sequence (P15170 whole entry): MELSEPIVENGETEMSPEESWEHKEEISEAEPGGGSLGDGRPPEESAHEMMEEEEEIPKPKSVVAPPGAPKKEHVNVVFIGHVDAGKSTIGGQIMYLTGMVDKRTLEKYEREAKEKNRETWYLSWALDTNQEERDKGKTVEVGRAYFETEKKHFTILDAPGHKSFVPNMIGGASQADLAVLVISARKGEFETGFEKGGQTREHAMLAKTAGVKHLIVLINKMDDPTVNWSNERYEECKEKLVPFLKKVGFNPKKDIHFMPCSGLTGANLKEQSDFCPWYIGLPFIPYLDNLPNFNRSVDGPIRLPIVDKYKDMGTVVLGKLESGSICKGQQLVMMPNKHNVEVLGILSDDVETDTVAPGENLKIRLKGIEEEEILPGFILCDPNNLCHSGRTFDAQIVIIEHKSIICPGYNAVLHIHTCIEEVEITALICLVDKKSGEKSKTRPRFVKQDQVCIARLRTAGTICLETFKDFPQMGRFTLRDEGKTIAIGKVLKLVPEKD
T5 sequence (Q96SW2 whole entry): as the sequence (Q96SW2 whole entry) above
T5 sequence (Q16531 whole entry partner): as the sequence (Q16531 whole entry partner) above

IKZF3 = target: T6, IKZF3 (Homo sapiens, UniProt Q96SW2+Q9UKT9); experiment: Western-blot assay, substrate protein degradation in hPBMCs: IKZF3; conditions: for substrate protein remaining % IKZF3: 24 hours of compound treatment, 50 nM and 500 nM; for IKZF3 substrate protein remaining %: compounds at 50 nM and 500 nM, 24 hours
T6 construct: effects of the compounds of the present disclosure on the expression of target proteins in cells; endogenous in cells; host or cells: human PBMCs (hPBMCs)
T6 sequence (Q9UKT9 whole entry): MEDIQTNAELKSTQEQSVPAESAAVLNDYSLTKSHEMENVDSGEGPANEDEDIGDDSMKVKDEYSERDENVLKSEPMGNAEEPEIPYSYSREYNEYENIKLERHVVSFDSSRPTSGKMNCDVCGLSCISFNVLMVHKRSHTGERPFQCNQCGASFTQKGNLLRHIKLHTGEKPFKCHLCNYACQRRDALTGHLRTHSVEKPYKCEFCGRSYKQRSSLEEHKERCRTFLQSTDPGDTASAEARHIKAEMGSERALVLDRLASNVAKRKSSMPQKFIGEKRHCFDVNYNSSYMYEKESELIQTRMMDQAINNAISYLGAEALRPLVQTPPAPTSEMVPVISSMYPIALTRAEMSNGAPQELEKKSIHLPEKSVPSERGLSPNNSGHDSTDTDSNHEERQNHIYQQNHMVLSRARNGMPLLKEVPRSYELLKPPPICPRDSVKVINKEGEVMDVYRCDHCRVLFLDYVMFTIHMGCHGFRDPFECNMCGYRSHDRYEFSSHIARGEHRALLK
T6 sequence (Q96SW2 whole entry): as the sequence (Q96SW2 whole entry) above
T6 sequence (Q16531 whole entry partner): as the sequence (Q16531 whole entry partner) above

Compound	substrate protein remaining % IKZF1 (IKZF1)	substrate protein remaining % WEE1 (WEE1)	substrate protein remaining % CK1α (CK1α)	substrate protein remaining % IKZF2 (IKZF2)	substrate protein remaining % GSPT1 (GSPT1)	substrate protein remaining % IKZF3 (IKZF3)	IKZF1 substrate protein remaining % (IKZF1)	WEE1 substrate protein remaining % (WEE1)	CK1α substrate protein remaining % (CK1α)	IKZF2 substrate protein remaining % (IKZF2)	GSPT1 substrate protein remaining % (GSPT1)	IKZF3 substrate protein remaining % (IKZF3)
O=C1CCN(N2Cc3cc(CN4CC(C5CCOc6cc(F)ccc65)C4)ccc3C2=O)C(=O)N1 (stereo not drawn) [GT-07690, 1-(5-((3-(7-fluorochroman-4-yl)azetidin-1-yl)methyl)-1-oxoisoindolin-2-yl)dihydropyrimidine-2,4(1H,3H)-dione]	B (80%< substrate protein remaining %≤ 100%)	B (80%< substrate protein remaining %≤ 100%)	A (0% ≤ substrate protein remaining % ≤ 80%)	A (0% ≤ substrate protein remaining % ≤ 80%)	A (0% ≤ substrate protein remaining % ≤ 80%)	B (80%< substrate protein remaining %≤ 100%)						
O=C1CCN(N2Cc3cc(CN4CCN(c5ccncc5F)CC4)ccc3C2=O)C(=O)N1 [GT-05697, 1-(5-((4-(3-fluoropyridin-4-yl)piperazin-1-yl)methyl)-1-oxoisoindolin-2-yl)dihydropyrimidine-2,4(1H,3H)-dione]							B ("B" is defined as 80%< substrate protein remaining %≤ 100%)	A ("A" is defined as 0% ≤ substrate protein remaining % ≤ 80%)	B ("B" is defined as 80%< substrate protein remaining %≤ 100%)	B ("B" is defined as 80%< substrate protein remaining %≤ 100%)	A ("A" is defined as 0% ≤ substrate protein remaining % ≤ 80%)	B ("B" is defined as 80%< substrate protein remaining %≤ 100%)
O=C1CCN(N2Cc3cc(CN4CCC(c5ccc(Br)cc5)CC4)ccc3C2=O)C(=O)N1 [GT-06886, 1-(5-((4-(4-bromophenyl)piperidin-1-yl)methyl)-1-oxoisoindolin-2-yl)dihydropyrimidine-2,4(1H,3H)-dione]							B ("B" is defined as 80%< substrate protein remaining %≤ 100%)	B ("B" is defined as 80%< substrate protein remaining %≤ 100%)	B ("B" is defined as 80%< substrate protein remaining %≤ 100%)	A ("A" is defined as 0% ≤ substrate protein remaining % ≤ 80%)	A ("A" is defined as 0% ≤ substrate protein remaining % ≤ 80%)	B ("B" is defined as 80%< substrate protein remaining %≤ 100%)
O=C1CCN(N2Cc3cc(CN4CCN(c5ccc(F)cc5F)CC4)ccc3C2=O)C(=O)N1 [GT-06778, 1-(5-((4-(2,4-difluorophenyl)piperazin-1-yl)methyl)-1-oxoisoindolin-2-yl)dihydropyrimidine-2,4(1H,3H)-dione]							B ("B" is defined as 80%< substrate protein remaining %≤ 100%)	B ("B" is defined as 80%< substrate protein remaining %≤ 100%)	A ("A" is defined as 0% ≤ substrate protein remaining % ≤ 80%)	B ("B" is defined as 80%< substrate protein remaining %≤ 100%)	A ("A" is defined as 0% ≤ substrate protein remaining % ≤ 80%)	B ("B" is defined as 80%< substrate protein remaining %≤ 100%)
O=C1CCN(N2C(=O)c3ccc(CN4CC5CCC(C4)N5C(c4ccccc4)c4ccccc4)cc3C2=O)C(=O)N1 [GT-06453, 5-((8-benzhydryl-3,8-diazabicyclo[3.2.1]octan-3-yl)methyl)-2-(2,4-dioxotetrahydropyrimidin-1(2H)-yl)isoindoline-1,3-dione]							B ("B" is defined as 80%< substrate protein remaining %≤ 100%)	B ("B" is defined as 80%< substrate protein remaining %≤ 100%)	B ("B" is defined as 80%< substrate protein remaining %≤ 100%)	A ("A" is defined as 0% ≤ substrate protein remaining % ≤ 80%)	B ("B" is defined as 80%< substrate protein remaining %≤ 100%)	B ("B" is defined as 80%< substrate protein remaining %≤ 100%)
O=C1CCN(N2C(=O)c3ccc(CN4CCN(c5c(Cl)ccnc5Cl)CC4)cc3C2=O)C(=O)N1 [GT-06973, 5-((4-(2,4-dichloropyridin-3-yl)piperazin-1-yl)methyl)-2-(2,4-dioxotetrahydropyrimidin-1(2H)-yl)isoindoline-1,3-dione]							A ("A" is defined as 0% ≤ substrate protein remaining % ≤ 80%)	A ("A" is defined as 0% ≤ substrate protein remaining % ≤ 80%)	B ("B" is defined as 80%< substrate protein remaining %≤ 100%)	B ("B" is defined as 80%< substrate protein remaining %≤ 100%)	B ("B" is defined as 80%< substrate protein remaining %≤ 100%)	A ("A" is defined as 0% ≤ substrate protein remaining % ≤ 80%)
O=C1CCN(N2Cc3cc(CN4CCN(c5c(Cl)cncc5Br)CC4)ccc3C2=O)C(=O)N1 [GT-07170, 1-(5-((4-(3-bromo-5-chloropyridin-4-yl)piperazin-1-yl)methyl)-1-oxoisoindolin-2-yl)dihydropyrimidine-2,4(1H,3H)-dione]							A ("A" is defined as 0% ≤ substrate protein remaining % ≤ 80%)	A ("A" is defined as 0% ≤ substrate protein remaining % ≤ 80%)	B ("B" is defined as 80%< substrate protein remaining %≤ 100%)	B ("B" is defined as 80%< substrate protein remaining %≤ 100%)	B ("B" is defined as 80%< substrate protein remaining %≤ 100%)	B ("B" is defined as 80%< substrate protein remaining %≤ 100%)
O=C1CCN(N2Cc3cc(CN4CCC(c5ccnc(F)c5F)CC4)ccc3C2=O)C(=O)N1 [GT-06396, 1-(5-((4-(2,3-difluoropyridin-4-yl)piperidin-1-yl)methyl)-1-oxoisoindolin-2-yl)dihydropyrimidine-2,4(1H,3H)-dione]							B ("B" is defined as 80%< substrate protein remaining %≤ 100%)	B ("B" is defined as 80%< substrate protein remaining %≤ 100%)	A ("A" is defined as 0% ≤ substrate protein remaining % ≤ 80%)	B ("B" is defined as 80%< substrate protein remaining %≤ 100%)	B ("B" is defined as 80%< substrate protein remaining %≤ 100%)	B ("B" is defined as 80%< substrate protein remaining %≤ 100%)
O=C1CCN(N2C(=O)c3ccc(CN4CCN(c5nccc(Cl)c5Br)CC4)cc3C2=O)C(=O)N1 [GT-07291, 5-((4-(3-bromo-4-chloropyridin-2-yl)piperazin-1-yl)methyl)-2-(2,4-dioxotetrahydropyrimidin-1(2H)-yl)isoindoline-1,3-dione]							B ("B" is defined as 80%< substrate protein remaining %≤ 100%)	A ("A" is defined as 0% ≤ substrate protein remaining % ≤ 80%)	B ("B" is defined as 80%< substrate protein remaining %≤ 100%)	B ("B" is defined as 80%< substrate protein remaining %≤ 100%)	A ("A" is defined as 0% ≤ substrate protein remaining % ≤ 80%)	B ("B" is defined as 80%< substrate protein remaining %≤ 100%)
O=C1CCN(N2C(=O)c3ccc(CN4CC=C(c5cccc6c(F)cccc56)CC4)cc3C2=O)C(=O)N1 [GT-07687, 2-(2,4-dioxotetrahydropyrimidin-1(2H)-yl)-5-((4-(5-fluoronaphthalen-1-yl)-3,6-dihydropyridin-1(2H)-yl)methyl)isoindoline-1,3-dione]	B (80%< substrate protein remaining %≤ 100%)	B (80%< substrate protein remaining %≤ 100%)	B (80%< substrate protein remaining %≤ 100%)	B (80%< substrate protein remaining %≤ 100%)	A (0% ≤ substrate protein remaining % ≤ 80%)	B (80%< substrate protein remaining %≤ 100%)						
Cn1cc(C2=CCN(Cc3ccc4c(c3)C(=O)N(N3CCC(=O)NC3=O)C4=O)CC2)c2ccc(F)cc21 [GT-05276, 2-(2,4-dioxotetrahydropyrimidin-1(2H)-yl)-5-((4-(6-fluoro-1-methyl-1H-indol-3-yl)-3,6-dihydropyridin-1(2H)-yl)methyl)isoindoline-1,3-dione]							B ("B" is defined as 80%< substrate protein remaining %≤ 100%)	B ("B" is defined as 80%< substrate protein remaining %≤ 100%)	B ("B" is defined as 80%< substrate protein remaining %≤ 100%)	B ("B" is defined as 80%< substrate protein remaining %≤ 100%)	A ("A" is defined as 0% ≤ substrate protein remaining % ≤ 80%)	A ("A" is defined as 0% ≤ substrate protein remaining % ≤ 80%)

Source: EP4722207A1, “OXOISOINDOLINYL-SUBSTITUTED TETRAHYDROPYRIMIDINEDIONE DERIVATIVE AND USE THEREOF” (Gluetacs Therapeutics (Shanghai) Co., Ltd., priority 2023, dated 2024)
